From patent US6310086A, “Indole derivatives and medicinal compositions containing the same” (Kissei Pharmaceutical Co., Ltd., priority 1998, dated 2001) come the findings set out here.

Counter-ions that a name gives are not always drawn. Like-named read-outs stand apart in the source and are kept apart here.

The target in one data set is T1, α1-adrenoceptor (Rattus norvegicus, UniProt P43140).
T1 construct: Ductus deferenses (about 1.5 cm from testis side) were isolated; from tissue; host or cells: isolated ductus deferens (about 1.5 cm from testis side) of male Wistar rats, organ bath
T1 sequence (P43140 1-466): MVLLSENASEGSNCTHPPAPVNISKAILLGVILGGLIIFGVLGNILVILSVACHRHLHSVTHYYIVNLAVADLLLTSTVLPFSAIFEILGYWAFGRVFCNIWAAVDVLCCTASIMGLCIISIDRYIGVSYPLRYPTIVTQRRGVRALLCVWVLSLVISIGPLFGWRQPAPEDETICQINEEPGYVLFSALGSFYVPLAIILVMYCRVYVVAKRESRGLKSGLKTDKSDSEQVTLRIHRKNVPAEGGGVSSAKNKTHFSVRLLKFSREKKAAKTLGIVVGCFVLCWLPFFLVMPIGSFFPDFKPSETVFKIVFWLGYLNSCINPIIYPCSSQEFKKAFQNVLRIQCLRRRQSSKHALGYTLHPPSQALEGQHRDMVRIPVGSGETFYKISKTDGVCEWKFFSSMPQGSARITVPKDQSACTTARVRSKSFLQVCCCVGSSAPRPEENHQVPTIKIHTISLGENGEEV
Briefly: Test for Measuring α1-adrenoceptor Blocking Effect (inhibition of norepinephrine contraction of isolated ductus deferens). Format: cell-based, rat (male Wistar). The following applies: 10 μM norepinephrine, propranorol 1 μM and yohimbine 0.1 μM.

In a further data set the test system is male SD rats. The data set can be described thus: Acute Toxicity Test (oral). Format: in vivo, rat (SD). The following applies: 1000 mg/kg. How it is done:
Male SD rats of 7 weeks age (n=5; 190-210 g in body weight) were fasted for 18 hours. (R)-3-[7-Carbamoyl-5-[2-[[2-(2-ethoxyphenoxy)ethyl]amino]propyl]-1H-indol- 1-yl]propyl pivalate hydrochloride which was suspended in 0.5% aqueous methylcellulose solution at a concentration of 100 mg/ml was orally administered to the rats at a dose of 1000 mg/kg.

Data set [1] in a line: Test for Measuring Drug Concentration in Aqueous Humor (2), after instillation of Compound C hydrochloride. Format: in vivo, rabbit (Japanese White). Particulars: rabbit eye.
Method: To the collected aqueous humor (0.1 ml) was added internal standard [(R)-3-chloro-1-(3-hydroxypropyl)-5-[2-[[2-[2-(2,2,2-trifluoroethoxy)phenoxy]ethyl]amino]propyl]-1H-indole-7-carboxamide](10 ng), and 0.1M phosphate buffer (pH7.6) and sodium chloride (about 1 g) were added to the mixture. The resulting mixture was extracted with diethyl ether (5 ml), and the diethyl ether layer was concentrated under a stream of nitrogen.
Mobile phase: acetonitrile/0.1% phosphoric acid+2 mM sodium laurylsulfate=1/1
Fluorometry: excitation wave length 270 nm, emission wave length 435 nm
Data set [2] is described as follows: Stability Test in aqueous solution. Format: physicochemical. Particulars: pH 5, decomposed into Compound A. On the procedure:
The test compounds were dissolved in 0. 1M acetate buffer (pH 5.0) to prepare 0.1% solutions. Each 0.1% solution was allowed to stand in the dark for 28 days at 40° C., 50° C., 60° C. and 70° C., respectively.

Data set [3] in a line: Test for Rate of Hydrolysis by Endogenous Enzyme in whole blood. The following applies: for metabolised at 0.25 h: read-out: Decomposition rate, 15 minutes after; for metabolised at 1 h: read-out: Decomposition rate, 1 hour after; for metabolised at 2 h: read-out: Decomposition rate, 2 hours after. Format: in vitro ADME, rat (male Wistar). On the procedure: (§1) (1 μg), and the mixture was incubated at 37° C. After 15 minutes, 30 minutes, 1 hour and 2 hours, 0.7M aqueous sodium fluoride solution (0.5 ml) as an esterase inhibitor was added to each sample to stop the reaction.
(§2) Analytical column: Inertsil ODS-3 (4.6×250 mm)
(§3) Mobile phase: acetonitrile/20 mM acetate buffer (pH 5.0)=40/60 Column temperature: 50° C.
(§4) Fluorometry: excitation wavelength 270 nm, emission wavelength 435 nm

The test system of a further data set is Endogenous Enzyme. Described as above. Format: in vitro ADME, rat (male Wistar). Particulars: blood, 2 hours. How it is done: as §1, §2, §3, §4
[4] abbreviates: rat whole blood, 37° C., 1 μg in 0.5 ml.
The mark [5] stands for this setting: rat whole blood, 37° C., 1 μg in 0.5 ml, read-out: Decomposition rate, 30 minutes after.

Method for α1-adrenoceptor: Ductus deferenses (about 1.5 cm from testis side) were isolated frommaleWistar rats (about 300 to 350 g in body weight). […] A solution of a mixture containing propranorol and yohimbine (final concentration: propranorol 1 μM and yohimbine 0.1 μM) was added into the Magnus bath. After 30 minutes, norepinephrine at the final concentration of 10 μM was added into the Magnus bath until the maximum contraction was obtained, and each preparation was washed. This procedure was repeated several times until the heights of contraction were stable. Each preparation was pre-treated with a solution containing the test compound before 30 minutes, and the contractile responses by treatment of 10 μM norepinephrine were measured. Contraction of each preparation without pre-treatment of the test compound was expressed as 100%.

Compound `CCCC(=O)N1CCCN(c2nc(N)c3cc(OC)c(OC)cc3n2)CC1` [Bunazosin hydrochloride] gave a concentration for half-maximal inhibition (IC50) on α1-adrenoceptor of 315 nM. This lies in the sub-micromolar range.
With `CCOc1ccccc1OCCN[C@H](C)Cc1cc(C(N)=O)c2c(ccn2CCCOC(=O)C(C)(C)C)c1.Cl` [Compound C hydrochloride, (R)-3-[7-Carbamoyl-5-[2-[[2-(2-ethoxyphenoxy)ethyl]amino]-propyl]-1H-indol-1-yl]propyl Pivalate Hydrochloride], the “fatal rats during 24 hours after administration” value with male SD rats was “Any fatal rats were not observed”.
Consider `CCOc1ccccc1OCCN[C@H](C)Cc1cc(C(N)=O)c2c(ccn2CCCOC(=O)C(C)(C)C)c1` [Compound C, (R)-3-[7-Carbamoyl-5-[2-[[2-(2-ethoxyphenoxy)ethyl]amino]-propyl]-1H-indol-1-yl]propyl Pivalate], for which the “detection of the ester in aqueous humor” value in data set [1] (even after 20 minutes) is “could not be detected in aqueous humor at all even after 20 minutes”.
With `CCOc1ccccc1OCCN[C@H](C)Cc1cc(C(N)=O)c2c(ccn2CCCOC(=O)C(C)(C)C)c1` [Compound C], in data set [1] (aqueous humor, topical or ocular, 50 ug/eye, 50 μl of 0.1% Compound C hydrochloride instilled, Compounds B and C determined, read-out: Drug concentrations in aqueous humor, 20 minutes after), the concentration at 20 min is below 1 ng/mL. For the same compound, the concentration at 2 h in data set [1] (aqueous humor, topical or ocular, 50 ug/eye, 50 μl of 0.1% Compound C hydrochloride instilled, Compounds B and C determined, read-out: Drug concentrations in aqueous humor, 2 hours after) was below 1 ng/mL. For the same compound, the concentration at 6 h in data set [1] (aqueous humor, topical or ocular, 50 ug/eye, 50 μl of 0.1% Compound C hydrochloride instilled, Compounds B and C determined, read-out: Drug concentrations in aqueous humor, 6 hours after) was below 1 ng/mL.
In the case of `C[C@H](Cc1cc(C(N)=O)c2c(ccn2CCCOC(=O)C(C)(C)C)c1)NCCOc1ccccc1OCC(F)(F)F` [Compound D, (R)-3-[7-Carbamoyl-5-[2-[[2-[2-(2,2,2-trifluoroethoxy)-phenoxy]ethyl]amino]propyl]-1H-indol-1-yl]propyl Pivalate], the degraded was around 0.1% in data set [2] (40° C., about 1 month at 40° C.) and around 1.1% in data set [2] (70° C., about 1 month at 70° C.). Besides, the metabolised at 0.5 h in data set [3] (blood, 30 minutes) is around 67%. Moreover, in the data set with Endogenous Enzyme, the “conversion into Compound A after 2 hours” value is reported as “almost Compound A after 2 hours”.
As to `C[C@H](Cc1cc(C(N)=O)c2c(ccn2CCCOC(=O)C(C)(C)C)c1)NCCOc1ccccc1OCC(F)(F)F` [Compound D], in data set [3] (setting [4]), the metabolised at 0.25 h amounted to 54.8%, the metabolised at 1 h was found to be 86.5% and the metabolised at 2 h came to 98.6%. In addition, in data set [3] (setting [5]), the metabolised at 0.5 h is 67.1%.
In data set [3] (blood, 30 minutes), `CCC(CC)C(=O)OCCCn1ccc2cc(C[C@@H](C)NCCOc3ccccc3OCC(F)(F)F)cc(C(N)=O)c21` [Compound a, (R)-3-[7-Carbamoyl-5-[2-[[2-[2-(2,2,2-trifluoroethoxy)-phenoxy]ethyl]amino]propyl]-1H-indol-1-yl]propyl 2-ethyl-butyrate] returned a metabolised at 0.5 h of around 12%.
As to `CCC(CC)C(=O)OCCCn1ccc2cc(C[C@@H](C)NCCOc3ccccc3OCC(F)(F)F)cc(C(N)=O)c21` [Compound a], in data set [3] (setting [4]), the metabolised at 0.25 h is 8.4%, the metabolised at 1 h is 12.6% and the metabolised at 2 h was 25.2%. In addition, the metabolised at 0.5 h in data set [3] (setting [5]) came to 12%.
`CCCC(C)(C)C(=O)OCCCn1ccc2cc(C[C@@H](C)NCCOc3ccccc3OCC(F)(F)F)cc(C(N)=O)c21` [Compound b, (R)-3-[7-Carbamoyl-5-[2-[[2-[2-(2,2,2-trifluoroethoxy)-phenoxy]ethyl]amino]propyl]-1H-indol-1-yl]propyl 2,2-dimethylvalerate]: in data set [3] (blood, 30 minutes), the metabolised at 0.5 h was around 4%.
In the case of `CCCC(C)(C)C(=O)OCCCn1ccc2cc(C[C@@H](C)NCCOc3ccccc3OCC(F)(F)F)cc(C(N)=O)c21` [Compound b], in data set [3] (setting [4]), the metabolised at 0.25 h was 2.2%, the metabolised at 1 h is 7.5% and the metabolised at 2 h was found to be 10.2%. Moreover, in data set [3] (setting [5]), the metabolised at 0.5 h came to 3.8%.
In turn, `C[C@H](Cc1cc(C(N)=O)c2c(ccn2CCCOC(=O)C(C)(C)c2ccccc2)c1)NCCOc1ccccc1OCC(F)(F)F` [Compound c, (R)-3-[7-Carbamoyl-5-[2-[[2-[2-(2,2,2-trifluoroethoxy)-phenoxy]ethyl]amino]propyl]1H-indol-1-yl]propyl α,α-dimethylphenylacetate] showed a metabolised at 0.5 h in data set [3] (blood, 30 minutes) of around 2%.
On to `C[C@H](Cc1cc(C(N)=O)c2c(ccn2CCCOC(=O)C(C)(C)c2ccccc2)c1)NCCOc1ccccc1OCC(F)(F)F` [Compound c], for which, in data set [3] (setting [4]), the metabolised at 0.25 h amounted to 0.6%, the metabolised at 1 h is 3.2% and the metabolised at 2 h was 3.7%. For the same compound, in data set [3] (setting [5]), the metabolised at 0.5 h was 1.6%.
Compound `CCC(C)(C)C(=O)OCCCn1ccc2cc(C[C@@H](C)NCCOc3ccccc3OCC(F)(F)F)cc(C(N)=O)c21` [Compound d, (R)-3-[7-Carbamoyl-5-[2-[[2-[2-(2,2,2-trifluoroethoxy)-phenoxy]ethyl]amino]propyl]-1H-indol-1-yl]propyl 2,2-Dimethylbutyrate] gave a metabolised at 0.5 h in data set [3] (blood, 30 minutes) of around 6%.
Regarding `CCC(C)(C)C(=O)OCCCn1ccc2cc(C[C@@H](C)NCCOc3ccccc3OCC(F)(F)F)cc(C(N)=O)c21` [Compound d], in data set [3] (setting [4]), the metabolised at 0.25 h turned out to be 2.1%, the metabolised at 1 h was 8.4% and the metabolised at 2 h was determined as 21.7%. In addition, the metabolised at 0.5 h in data set [3] (setting [5]) was 5.6%.
